1 compound from US12589071B2, “Suckable and/or melt-in-mouth tablet based on hyaluronic acid and chondroitin sulphate and salts thereof” (SOFAR SWISS SA, priority 2017, dated 2026) can be followed below.

Molecules are shown by their SMILES.

The test system of this test is patients with a first diagnosis of GERD with extraesophageal (upper) symptoms. In words: Randomised open-label clinical study, Experimental Part (II): RSI (Reflux Symptom Index) questionnaire. In kind it is in vivo, human.

Excerpt: The aim of the present study was to assess, in patients who, at the first diagnosis, presented with extraesophageal symptoms associated with gastroesophageal reflux disease (GERD), the effect of a 6-week treatment with the composition C1 comprising a chondroitin sulphate, a hyaluronic acid or a salt thereof and an aluminium hydroxide, in combination with a treatment with proton pump inhibitors (PPI) versus treatment with PPIs alone; i.e. to verify the reduction in the frequency of symptoms in patients by means of the Likert questionnaire, and the severity of upper symptoms, by means of the RSI (Reflux Symptom Index) questionnaire, and to assess Responders and Non-Responders in the two groups of patients after 6 weeks of treatment versus the baseline.
The multi-centre prospective, randomised, open-label clinical study, with two parallel arms of treatment, followed by the FU period, provided for the treatment, for 6 weeks, of 78 patients diagnosed for the first time, who presented with upper symptoms ascribable to a diagnosis of GERD, in the presence/absence of typical symptoms. The patients were thus randomly assigned, on an open-label basis, in a 1:1 ratio: • 39 patients were treated with C1+PPIs (omeprazole) for 6 weeks; and • 39 patients were treated only with a PPI (omeprazole) for 6 weeks. […]
On these occasions patients filled out the RSI questionnaire, for the assessment of the severity of symptoms, and the Likert scale, for the assessment of the reduction in the frequency of symptoms. […] In this period, only the use of omeprazole (PPI), at a constant dosage, was allowed, according to the indications of the investigator, both to the patients included in the untreated group and in the treatment group, as a rescue medication to control symptoms and safety data were assessed. […]

For `COc1ccc2[nH]c([S+]([O-])Cc3ncc(C)c(OC)c3C)nc2c1` (stereo not drawn) [PPI, omeprazole], the “MEAN of DELTA RSI per treatment group” value (V4 (6 weeks) versus baseline V1, N 28 (C1 + PPI), N 36 (PPI)) is reported as −13.69. In addition, the “DELTA (RSI V4 versus RSI V1, individual subject)” value (after 6 weeks of treatment versus baseline, one line per subject, preliminary, listed as IPPI) is −11. Where the note is “examination V4 after 6 weeks of treatment, one line per subject, preliminary, listed as IPPI”, the “RSI V4 (individual subject score)” value came to 13.
